Literature values in patent publication US10980267B2, “Molecular particle superior delivery system” (priority 2018, dated 2021).

Columns and labels:
[1] = especially child seizures
[2] = in humans, WHO report
[3] = consumed in foods and drinks

C=C(C)[C@@H]1CCC(C)=C[C@H]1c1c(O)cc(CCCCC)cc1O [CBD, cannabidiol]
effect on number of seizures [1]: reduce the number of seizures | abuse or dependence potential [2]: no effects indicative of any abuse or dependence potential | safety of consumption / toxicity [3]: completely safe to consume in foods and drinks and is considered to be non-toxic
